Legend:
[1] = system: transformant having ef1α promoter; conditions: GPY plate media, 28° C.
Description: (§1) (22) Test for Zeocin Sensitivity of Transformant
(§2) The precultured microorganism cells were diluted to 20 cells/μl, and 1 μl thereof was spotted onto GPY plate media having Zeocin concentration ranging from 0 to 6000 μg/ml and incubated in the shade at 28° C. for 60 hours.

[2] = system: transformant having gapdh promoter; conditions: GPY plate media, 28° C.
Description: as §1, §2

[3] = system: wild type (CB15-5 strain); conditions: GPY plate media, 28° C.
Description: as §1, §2

[4] = system: Schizochytrium sp. CB15-5; conditions: medium containing 10 to 30 μg/ml Zeocin; 28° C., 72 hours in the shade
Description: (3) Test for Zeocin Sensitivity of CB15-5 Strain
The precultured microorganism cells were diluted 1000-fold, and 100 μL thereof was seeded onto GYP plate media having Zeocin concentration ranging from 0 to 50 μg/ml, and incubated at 28° C. for 72 hours in the shade. The number and size of the resulting colonies were measured.

[5] = system: transformant having actin promoter; conditions: GPY plate media, 28° C.

## Cc1c(N)nc([C@H](CC(N)=O)NC[C@H](N)C(N)=O)nc1C(=O)N[C@H](C(=O)N[C@H](C)[C@@H](O)[C@H](C)C(=O)N[C@H](C(=O)NCCC1=N[C@@H](c2nc(C(=O)NCCCCN=C(N)N)cs2)CS1)[C@@H](C)O)[C@@H](O[C@@H]1O[C@@H](CO)[C@@H](O)[C@H](O)[C@@H]1O[C@H]1O[C@H](CO)[C@@H](O)[C@H](OC(N)=O)[C@@H]1O)c1cnc[nH]1 [Zeocin]
[1]
  Zeocin concentration up to which viable: ≤ 6000 µg/mL
[2]
  Zeocin concentration up to which viable: ≤ 2000 µg/mL
[3]
  Zeocin concentration in which completely nonviable: 20 µg/mL
[4]
  number and size of the colonies: concentration-dependent decrease
[5]
  Zeocin concentration up to which viable: up to 4000 μg/ml

Source: patent US7888123B2 (priority 2005, dated 2011)
